Results published in the NIST ThermoML archive (doi:10.1016/j.fluid.2019.03.023).
± gives the expanded uncertainty stated by the source.

Assay: activity coefficient (dimensionless); of the first substance listed, at infinite dilution; xn = mol fraction of the nth substance listed
Conditions: 101.33 kPa, Liquid, Chromatography, x1 = 0

SMILES: C1CCCCCCC1 [cyclooctane] + CCCCCCCCCCCCCC[P+](CCCCCC)(CCCCCC)CCCCCC.N#C[N-]C#N
- activity coefficient (313.15 K): 0.89 ± 0.091
- activity coefficient (323.15 K): 0.928 ± 0.095
- activity coefficient (333.15 K): 0.978 ± 0.099
- activity coefficient (343.15 K): 1.05 ± 0.11

SMILES: CCCCCCCCCC [decane] + CCCCCCCCCCCCCC[P+](CCCCCC)(CCCCCC)CCCCCC.N#C[N-]C#N
- activity coefficient (313.15 K): 2.19 ± 0.23
- activity coefficient (323.15 K): 2.34 ± 0.25
- activity coefficient (333.15 K): 2.54 ± 0.27
- activity coefficient (343.15 K): 2.74 ± 0.29

SMILES: Cc1cccc(C)c1 [1,3-dimethylbenzene] + CCCCCCCCCCCCCC[P+](CCCCCC)(CCCCCC)CCCCCC.N#C[N-]C#N
- activity coefficient (313.15 K): 0.633 ± 0.067
- activity coefficient (323.15 K): 0.654 ± 0.069
- activity coefficient (333.15 K): 0.689 ± 0.072
- activity coefficient (343.15 K): 0.716 ± 0.075

SMILES: CCCCC [pentane] + CCCCCCCCCCCCCC[P+](CCCCCC)(CCCCCC)CCCCCC.N#C[N-]C#N
- activity coefficient (313.15 K): 1 ± 0.1
- activity coefficient (323.15 K): 1.06 ± 0.11
- activity coefficient (333.15 K): 1.12 ± 0.11
- activity coefficient (343.15 K): 1.19 ± 0.12

SMILES: C#CCCC [1-pentyne] + CCCCCCCCCCCCCC[P+](CCCCCC)(CCCCCC)CCCCCC.N#C[N-]C#N
- activity coefficient (313.15 K): 0.413 ± 0.048
- activity coefficient (323.15 K): 0.465 ± 0.052
- activity coefficient (333.15 K): 0.547 ± 0.059
- activity coefficient (343.15 K): 0.619 ± 0.066

SMILES: c1ccsc1 [thiophene] + CCCCCCCCCCCCCC[P+](CCCCCC)(CCCCCC)CCCCCC.N#C[N-]C#N
- activity coefficient (313.15 K): 0.372 ± 0.044
- activity coefficient (323.15 K): 0.383 ± 0.045
- activity coefficient (333.15 K): 0.412 ± 0.048
- activity coefficient (343.15 K): 0.429 ± 0.049

SMILES: CCC(C)=O [butanone] + CCCCCCCCCCCCCC[P+](CCCCCC)(CCCCCC)CCCCCC.N#C[N-]C#N
- activity coefficient (313.15 K): 0.422 ± 0.048
- activity coefficient (323.15 K): 0.448 ± 0.051
- activity coefficient (333.15 K): 0.478 ± 0.053
- activity coefficient (343.15 K): 0.513 ± 0.056

SMILES: C1=CCCCC1 [cyclohexene] + CCCCCCCCCCCCCC[P+](CCCCCC)(CCCCCC)CCCCCC.N#C[N-]C#N
- activity coefficient (313.15 K): 0.647 ± 0.068
- activity coefficient (323.15 K): 0.709 ± 0.074
- activity coefficient (333.15 K): 0.76 ± 0.079
- activity coefficient (343.15 K): 0.813 ± 0.084

SMILES: CCc1ccccc1 [ethylbenzene] + CCCCCCCCCCCCCC[P+](CCCCCC)(CCCCCC)CCCCCC.N#C[N-]C#N
- activity coefficient (313.15 K): 0.567 ± 0.061
- activity coefficient (323.15 K): 0.606 ± 0.064
- activity coefficient (333.15 K): 0.653 ± 0.069
- activity coefficient (343.15 K): 0.7 ± 0.073

SMILES: Cc1ccccc1C [1,2-dimethylbenzene] + CCCCCCCCCCCCCC[P+](CCCCCC)(CCCCCC)CCCCCC.N#C[N-]C#N
- activity coefficient (313.15 K): 0.525 ± 0.057
- activity coefficient (323.15 K): 0.566 ± 0.061
- activity coefficient (333.15 K): 0.613 ± 0.065
- activity coefficient (343.15 K): 0.651 ± 0.069

SMILES: C=CCCCCCCC [1-nonene] + CCCCCCCCCCCCCC[P+](CCCCCC)(CCCCCC)CCCCCC.N#C[N-]C#N
- activity coefficient (313.15 K): 1.41 ± 0.15
- activity coefficient (323.15 K): 1.53 ± 0.16
- activity coefficient (333.15 K): 1.67 ± 0.17
- activity coefficient (343.15 K): 1.82 ± 0.19

SMILES: CCCCCC [hexane] + CCCCCCCCCCCCCC[P+](CCCCCC)(CCCCCC)CCCCCC.N#C[N-]C#N
- activity coefficient (313.15 K): 1.16 ± 0.12
- activity coefficient (323.15 K): 1.24 ± 0.13
- activity coefficient (333.15 K): 1.32 ± 0.14
- activity coefficient (343.15 K): 1.39 ± 0.14

SMILES: C#CCCCCC [1-heptyne] + CCCCCCCCCCCCCC[P+](CCCCCC)(CCCCCC)CCCCCC.N#C[N-]C#N
- activity coefficient (313.15 K): 0.485 ± 0.054
- activity coefficient (323.15 K): 0.57 ± 0.061
- activity coefficient (333.15 K): 0.644 ± 0.068
- activity coefficient (343.15 K): 0.721 ± 0.075

SMILES: C#CCCCC [1-hexyne] + CCCCCCCCCCCCCC[P+](CCCCCC)(CCCCCC)CCCCCC.N#C[N-]C#N
- activity coefficient (313.15 K): 0.442 ± 0.05
- activity coefficient (323.15 K): 0.513 ± 0.056
- activity coefficient (333.15 K): 0.593 ± 0.063
- activity coefficient (343.15 K): 0.669 ± 0.07

SMILES: Cc1ccccc1 [toluene] + CCCCCCCCCCCCCC[P+](CCCCCC)(CCCCCC)CCCCCC.N#C[N-]C#N
- activity coefficient (313.15 K): 0.419 ± 0.048
- activity coefficient (323.15 K): 0.458 ± 0.051
- activity coefficient (333.15 K): 0.489 ± 0.054
- activity coefficient (343.15 K): 0.523 ± 0.057

SMILES: CC(C)=O [acetone] + CCCCCCCCCCCCCC[P+](CCCCCC)(CCCCCC)CCCCCC.N#C[N-]C#N
- activity coefficient (313.15 K): 0.35 ± 0.043
- activity coefficient (323.15 K): 0.363 ± 0.044
- activity coefficient (333.15 K): 0.383 ± 0.045
- activity coefficient (343.15 K): 0.405 ± 0.047

SMILES: C1CCCCC1 [cyclohexane] + CCCCCCCCCCCCCC[P+](CCCCCC)(CCCCCC)CCCCCC.N#C[N-]C#N
- activity coefficient (313.15 K): 0.733 ± 0.076
- activity coefficient (323.15 K): 0.78 ± 0.081
- activity coefficient (333.15 K): 0.832 ± 0.085
- activity coefficient (343.15 K): 0.901 ± 0.092
